In patent US20080300237A1, “Pharmaceutically Active Diazepanes” (priority 2005, published 2008):

Biological target: T1, human LFA-1 (Homo sapiens, UniProt P20701)
T1 construct: endogenous in cells; host or cells: JY cells (human lymphoblastoid B cell line); The ICAM-1 fusion partner is made in the baculovirus system
Assay: In vitro cell free assay: binding of soluble human ICAM-1 to immobilized human LFA-1
Details: immobilized human LFA-1, biotinylated recombinant ICAM-1, read-out: IC50, inhibition of adhesion of LFA-1 to ICAM-1
Description: A. In Vitro TEST SYSTEM (Cell Free Assay)
The assay determines the binding of soluble human ICAM-1 to immobilized human LFA-1. LFA-1 is purified from JY cells, a human lymphoblastoid B cell-line, by immunoaffinity chromatography analogously as described by Dustin et al., J. Immunol. 148, 2654-2663, 1992. ICAM-1 mouse Cκ fusion protein (ICAM-1) is produced using the baculovirus system as described by Weitz-Schmidt et al., Anal. Biochem. 238, 184-190, 1996.
Purified LFA-1 is diluted 1:20 in phosphate buffered saline (PBS) containing 2 mM MgCl2, pH 7.4 and coated onto microtiter plates (Nunc) at 37° for 3 hours. Plates are blocked with 1% heat-treated bovine serum albumin in PBS for 2 hours at 37° followed by a washing step using PBS, 2 mM MgCl2, 1% fetal calf serum, pH 7.4 (assay buffer). Compounds of the present invention (10 mM solution in DMSO) are diluted in assay buffer and added to the plates. Biotinylated recombinant ICAM-1 in assay buffer (6 μg/ml) is added and allowed to bind at 37° for one hour. After incubation, wells are washed with assay buffer. Streptavidinperoxidase diluted 1:5000 in assay buffer is added and incubated for 45 min at 37°. […] The reaction is stopped after 20 minutes and bound ICAM-1 is determined by measuring the optical density at 405 nm in a microplate reader.

T1 sequence (P20701 26-1170): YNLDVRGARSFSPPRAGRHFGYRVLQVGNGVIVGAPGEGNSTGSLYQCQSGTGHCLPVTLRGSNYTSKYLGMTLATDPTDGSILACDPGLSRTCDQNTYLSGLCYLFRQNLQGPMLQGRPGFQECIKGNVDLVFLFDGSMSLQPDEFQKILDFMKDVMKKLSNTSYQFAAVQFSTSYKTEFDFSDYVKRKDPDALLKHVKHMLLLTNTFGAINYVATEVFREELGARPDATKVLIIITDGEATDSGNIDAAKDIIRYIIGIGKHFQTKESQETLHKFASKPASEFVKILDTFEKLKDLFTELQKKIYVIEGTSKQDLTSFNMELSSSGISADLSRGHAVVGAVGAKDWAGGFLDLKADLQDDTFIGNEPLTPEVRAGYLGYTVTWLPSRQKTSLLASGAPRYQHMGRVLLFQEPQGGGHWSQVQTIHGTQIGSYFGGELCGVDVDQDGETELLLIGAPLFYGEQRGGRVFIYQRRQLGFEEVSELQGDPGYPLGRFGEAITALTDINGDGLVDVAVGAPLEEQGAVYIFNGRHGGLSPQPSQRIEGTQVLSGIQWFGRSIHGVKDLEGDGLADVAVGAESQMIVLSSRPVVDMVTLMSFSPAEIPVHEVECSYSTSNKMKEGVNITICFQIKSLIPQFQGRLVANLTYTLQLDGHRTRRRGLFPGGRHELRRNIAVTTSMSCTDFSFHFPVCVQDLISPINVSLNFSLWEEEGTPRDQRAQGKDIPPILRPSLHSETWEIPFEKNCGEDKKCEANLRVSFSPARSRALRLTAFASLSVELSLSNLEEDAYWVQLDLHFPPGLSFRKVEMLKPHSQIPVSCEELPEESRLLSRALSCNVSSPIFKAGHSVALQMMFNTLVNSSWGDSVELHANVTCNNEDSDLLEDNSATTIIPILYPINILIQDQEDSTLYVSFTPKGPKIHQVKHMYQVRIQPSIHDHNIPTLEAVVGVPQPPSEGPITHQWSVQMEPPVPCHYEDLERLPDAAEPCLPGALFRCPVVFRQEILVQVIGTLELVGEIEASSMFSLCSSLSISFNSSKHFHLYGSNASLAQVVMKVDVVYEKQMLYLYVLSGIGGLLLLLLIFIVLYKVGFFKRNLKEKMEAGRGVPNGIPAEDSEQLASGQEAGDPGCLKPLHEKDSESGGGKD
T1 sequence (P05107 23-769 partner): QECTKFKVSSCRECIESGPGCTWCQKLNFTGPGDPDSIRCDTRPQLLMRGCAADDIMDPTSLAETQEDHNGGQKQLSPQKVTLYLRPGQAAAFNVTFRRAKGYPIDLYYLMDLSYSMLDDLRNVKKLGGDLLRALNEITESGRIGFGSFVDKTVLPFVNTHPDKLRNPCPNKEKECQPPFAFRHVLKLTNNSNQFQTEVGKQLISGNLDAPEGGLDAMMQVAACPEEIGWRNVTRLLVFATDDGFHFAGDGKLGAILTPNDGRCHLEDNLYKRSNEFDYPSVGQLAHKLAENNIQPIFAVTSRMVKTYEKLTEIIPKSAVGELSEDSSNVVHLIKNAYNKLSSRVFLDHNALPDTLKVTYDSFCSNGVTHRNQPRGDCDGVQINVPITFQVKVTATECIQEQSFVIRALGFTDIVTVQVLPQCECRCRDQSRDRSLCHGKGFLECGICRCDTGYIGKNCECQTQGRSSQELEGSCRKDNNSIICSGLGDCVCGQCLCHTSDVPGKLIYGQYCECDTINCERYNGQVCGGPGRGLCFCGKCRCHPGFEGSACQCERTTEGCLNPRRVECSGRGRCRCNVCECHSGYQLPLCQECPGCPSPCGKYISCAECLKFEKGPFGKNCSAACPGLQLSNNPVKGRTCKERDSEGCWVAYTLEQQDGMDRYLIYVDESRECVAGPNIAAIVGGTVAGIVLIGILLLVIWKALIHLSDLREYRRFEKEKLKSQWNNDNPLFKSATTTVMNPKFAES

Compound	IC50 [nM]
C[C@@H]1CCN([C@H](Cc2cccc3ccccc23)C(N)=O)C(=O)[C@H](c2cccc(Cl)c2)N1C(=O)CNC(=O)c1ccccc1 [Example 13, N-{2-[(2S,7R)-4-((R)-1-Carbamoyl-2-naphthalen-1-yl-ethyl)-2-(3-chloro-phenyl)-7-methyl-3-oxo-[1,4]diazepan-1-yl]-2-oxo-ethyl}-benzamide]	430
C[C@@H]1CCN([C@H](Cc2cccc3ccccc23)C(N)=O)C(=O)[C@H](c2cccc(Cl)c2)N1C(=O)CNC(=O)[C@@H]1CCCN1 [Example 14, (S)-Pyrrolidine-2-carboxylic acid {2-[(2S,7R)-4-((R)-1-carbamoyl-2-naphthalen-1-yl-ethyl)-2-(3-chloro-phenyl)-7-methyl-3-oxo-[1,4]diazepan-1-yl]-2-oxo-ethyl}-amide]	90
